Assay results published in US9434711B2 (Janssen Pharmaceutica, NV, priority 2007, dated 2016).

Target: canine TRPM8 (Canis lupus familiaris, UniProt Q1A7N1)
Test: In Vitro Canine TRPM8 Functional Assay (Ca2+ fluorescence, icilin activation)
Assay type: cell-based
Details: for IC50: HEK293 cells stably expressing canine TRPM8, icilin activation, eight-point dose-response, read-out: IC50; for inhibition at 0.5 µM: compound at 0.5 μM, canine TRPM8, icilin activation, read-out: % Inh @ 0.5
Experimental: The functional activity of compounds of the formula (I) was determined by measuring changes in intracellular calcium concentration using a Ca^2+-sensitive fluorescent dye. The changes in fluorescent signal were monitored by a fluorescence plate reader, either a FLIPR™ (Molecular Devices) or FDSS (Hamamatsu).
At 24 hrs prior to assay, HEK293 cells stably expressing canine TRPM8 were seeded in culture medium in black wall, clear-base poly-D-lysine coated 384-well plates (BD Biosciences, NJ, USA) and grown overnight in 5% CO2 at 37° C. On assay day, growth media was removed and cells were loaded with Calcium 3 Dye (Molecular Devices) for 35 min at 37° C., under 5% CO2 and then for 25 min at room temperature and atmosphere. Subsequently, cells were tested for agonist-induced increases in intracellular Ca^2+ levels using FLIPR™ or FDSS. Cells were challenged with a compound of the Formula (I) (at varying concentrations) and intracellular Ca^2+ was measured for 5 min prior to the addition of icilin to all wells to achieve a final concentration that produces approximately an 80% maximal response. EC50 or IC50 values for compounds of the present invention were determined from eight-point dose-response studies. Curves were generated using the average of quadruplicate wells for each data point.

Chain of canine TRPM8 (Q1A7N1 1-1104): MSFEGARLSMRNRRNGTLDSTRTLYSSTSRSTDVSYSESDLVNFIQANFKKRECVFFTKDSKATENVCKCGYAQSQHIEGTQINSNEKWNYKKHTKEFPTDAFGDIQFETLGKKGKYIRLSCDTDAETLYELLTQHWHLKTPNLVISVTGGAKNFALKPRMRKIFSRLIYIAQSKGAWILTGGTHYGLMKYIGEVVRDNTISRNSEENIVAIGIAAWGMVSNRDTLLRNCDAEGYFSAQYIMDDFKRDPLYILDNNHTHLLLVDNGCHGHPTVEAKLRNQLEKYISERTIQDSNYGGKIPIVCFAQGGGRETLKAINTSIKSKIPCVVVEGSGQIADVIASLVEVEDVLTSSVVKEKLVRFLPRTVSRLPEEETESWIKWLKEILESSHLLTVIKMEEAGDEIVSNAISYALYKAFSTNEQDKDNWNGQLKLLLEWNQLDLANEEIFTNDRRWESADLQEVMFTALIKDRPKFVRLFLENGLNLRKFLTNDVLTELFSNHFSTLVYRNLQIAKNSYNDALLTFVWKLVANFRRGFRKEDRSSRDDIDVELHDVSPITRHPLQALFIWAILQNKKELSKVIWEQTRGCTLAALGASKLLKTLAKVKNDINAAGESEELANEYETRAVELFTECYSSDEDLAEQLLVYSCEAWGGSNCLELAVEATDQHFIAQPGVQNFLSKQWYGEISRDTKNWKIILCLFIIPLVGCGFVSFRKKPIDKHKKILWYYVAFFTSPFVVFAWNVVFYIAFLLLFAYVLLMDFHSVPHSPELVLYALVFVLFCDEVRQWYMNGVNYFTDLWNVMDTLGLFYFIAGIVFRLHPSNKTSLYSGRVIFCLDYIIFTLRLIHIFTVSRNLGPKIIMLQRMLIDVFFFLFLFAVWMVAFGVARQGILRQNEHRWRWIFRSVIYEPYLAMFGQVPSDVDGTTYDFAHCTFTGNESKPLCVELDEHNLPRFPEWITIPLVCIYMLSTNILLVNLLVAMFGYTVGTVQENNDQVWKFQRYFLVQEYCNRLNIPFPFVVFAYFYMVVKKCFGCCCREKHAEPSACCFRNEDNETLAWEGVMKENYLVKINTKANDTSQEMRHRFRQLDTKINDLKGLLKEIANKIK

SMILES	IC50	inhibition at 0.5 µM
O=S(=O)(c1ccccc1)N(Cc1ccc(F)c(F)c1)c1cc2ccccc2s1 [Compound 1, N-Benzo[b]thiophen-2-yl-N-(3,4-difluoro-benzyl)-benzenesulfonamide]	24 nM	100%
O=S(=O)(c1ccccc1)N(Cc1cccc(F)c1)c1cc2ccccc2s1 [Compound 3, N-Benzo[b]thiophen-2-yl-N-(3-fluoro-benzyl)-benzenesulfonamide]	35 nM	98%
O=S(=O)(c1ccccc1)N(Cc1ccc(F)cc1)c1sc2ccccc2c1Cl [Compound 4, N-(3-Chloro-benzo[b]thiophen-2-yl)-N-(4-fluoro-benzyl)-benzenesulfonamide]	4 nM	97%
O=S(=O)(c1ccccc1)N(Cc1cccc2cccnc12)c1sc2ccccc2c1Cl [Compound 5, N-(3-Chloro-benzo[b]thiophen-2-yl)-N-quinolin-8-ylmethyl-benzenesulfonamide]	63 nM	97%
O=S(=O)(c1ccccc1)N(Cc1ccc(OC(F)(F)F)cc1)c1sc2ccccc2c1Cl [Compound 6, N-(3-Chloro-benzo[b]thiophen-2-yl)-N-(4-trifluoromethoxy-benzyl)-benzenesulfonamide]	11.3 nM	99%
O=S(=O)(c1ccccc1)N(Cc1ccc(C(F)(F)F)cc1)c1sc2ccccc2c1Cl [Compound 8, N-(3-Chloro-benzo[b]thiophen-2-yl)-N-(4-trifluoromethyl-benzyl)-benzenesulfonamide]	10 nM	99%
O=S(=O)(c1ccccn1)N(Cc1ccc(F)c(F)c1)c1cc2ccccc2s1 [Compound 9, N-(Benzo[b]thiophen-2-yl)-N-(3,4-difluoro-benzyl)-pyridine-2-sulfonamide]	47 nM	98%
Cc1c(N(Cc2cccc3cccnc23)S(=O)(=O)c2cn(C)cn2)sc2ccccc12 [Compound 10, N-(3-Methyl-benzo[b]thiophen-2-yl)-N-(quinolin-8-ylmethyl)-1-methyl-1H-imidazole-4-sulfonamide]	229 nM	89%
Cc1c(N(Cc2ccc(OC(F)(F)F)cc2)S(=O)(=O)c2cn(C)cn2)sc2ccccc12 [Compound 11, N-(3-Methyl-benzo[b]thiophen-2-yl)-N-(4-trifluoromethoxy-benzyl)-1-methyl-1H-imidazole-4-sulfonamide]	33 nM	97%
Cc1c(N(Cc2ccc(F)c(F)c2)S(=O)(=O)c2cccnc2)sc2ccccc12 [Compound 12, N-(3,4-Difluoro-benzyl)-N-(3-methyl-benzo[b]thiophen-2-yl)-pyridine-3-sulfonamide]	6 nM	97%
Cc1c(N(Cc2ccc(OC(F)(F)F)cc2)S(=O)(=O)c2ccsc2)sc2ccccc12 [Compound 16, N-(3-Methyl-benzo[b]thiophen-2-yl)-N-(4-trifluoromethoxy-benzyl)-thiophene-3-sulfonamide]	6 nM	99%
Cc1c(N(Cc2cccc3cccnc23)S(=O)(=O)c2ccsc2)sc2ccccc12 [Compound 17, N-(3-Methyl-benzo[b]thiophen-2-yl)-N-(quinolin-8-ylmethyl)-thiophene-3-sulfonamide]	22 nM	97%
Cc1c(N(Cc2ccc(F)c(F)c2)S(=O)(=O)c2cc3ccccc3s2)sc2ccccc12 [Compound 18, N-(3,4-Difluoro-benzyl)-N-(3-methyl-benzo[b]thiophen-2-yl)-benzo[b]thiophene-2-sulfonamide]	81 nM	94%
Cc1c(N(Cc2cccc3cccnc23)S(=O)(=O)c2cc3ccccc3s2)sc2ccccc12 [Compound 19, N-(3-Methyl-benzo[b]thiophen-2-yl)-N-(quinolin-8-ylmethyl)-benzo[b]thiophene-2-sulfonamide]		58%
Cc1c(N(Cc2ccc(F)c(F)c2)S(=O)(=O)c2cccc3cccnc23)sc2ccccc12 [Compound 20, N-(3,4-Difluoro-benzyl)-N-(3-methyl-benzo[b]thiophen-2-yl)-quinoline-8-sulfonamide]	6 nM	98%
Cc1c(N(Cc2ccc(OC(F)(F)F)cc2)S(=O)(=O)c2cccc3cccnc23)sc2ccccc12 [Compound 21, N-(3-Methyl-benzo[b]thiophen-2-yl)-N-(4-trifluoromethoxy-benzyl)-quinoline-8-sulfonamide]	15 nM	98%
Cc1c(N(Cc2cccc3cccnc23)S(=O)(=O)c2cccc3cccnc23)sc2ccccc12 [Compound 22, N-(3-Methyl-benzo[b]thiophen-2-yl)-N-(quinolin-8-ylmethyl)-quinoline-8-sulfonamide]	32 nM	98%

SMILES	IC50	inhibition at 0.5 µM
O=S(=O)(c1ccccc1)N(Cc1cccc(F)c1)c1sc2ccccc2c1Cl [Compound 23, N-(3-Chloro-benzo[b]thiophen-2-yl)-N-(3-fluoro-benzyl)-benzenesulfonamide]	26 nM	99%
O=S(=O)(c1ccccc1)N(Cc1ccc(F)c(F)c1)c1sc2ccccc2c1Cl [Compound 24, N-(3-Chloro-benzo[b]thiophen-2-yl)-N-(3,4-difluoro-benzyl)-benzenesulfonamide]	8.8 nM	100%
COc1cccc(S(=O)(=O)N(Cc2ccc(F)c(F)c2)c2sc3ccccc3c2C)c1 [Compound 25, N-(3,4-Difluoro-benzyl)-N-(3-methyl-benzo[b]thiophen-2-yl)-3-methoxy-benzenesulfonamide]	21 nM	99%
COc1ccc(S(=O)(=O)N(Cc2ccc(F)c(F)c2)c2sc3ccccc3c2C)cc1 [Compound 26, N-(3,4-Difluoro-benzyl)-N-(3-methyl-benzo[b]thiophen-2-yl)-4-methoxy-benzenesulfonamide]	20 nM	98%
Cc1c(N(Cc2ccc(F)c(F)c2)S(=O)(=O)c2cccc3cnccc23)sc2ccccc12 [Compound 27, N-(3,4-Difluoro-benzyl)-N-(3-methyl-benzo[b]thiophen-2-yl)-isoquinoline-5-sulfonamide]	20 nM	99%
Cc1c(N(Cc2ccc(OC(F)(F)F)cc2)S(=O)(=O)c2cccc3cnccc23)sc2ccccc12 [Compound 28, N-(3-Methyl-benzo[b]thiophen-2-yl)-N-(4-trifluoromethoxy-benzyl)-isoquinoline-5-sulfonamide]	32 nM	100%
Cc1c(N(Cc2cccc3cccnc23)S(=O)(=O)c2cccc3cnccc23)sc2ccccc12 [Compound 29, N-(3-Methyl-benzo[b]thiophen-2-yl)-N-(quinolin-8-ylmethyl)-isoquinoline-5-sulfonamide]	33 nM	99%
Cc1c(N(Cc2ccc(F)c(F)c2)S(=O)(=O)c2ccc3ncccc3c2)sc2ccccc12 [Compound 30, N-(3,4-Difluoro-benzyl)-N-(3-methyl-benzo[b]thiophen-2-yl)-quinoline-6-sulfonamide]	12 nM	100%
Cc1c(N(Cc2ccc(OC(F)(F)F)cc2)S(=O)(=O)c2ccc3ncccc3c2)sc2ccccc12 [Compound 31, N-(3-Methyl-benzo[b]thiophen-2-yl)-N-(4-trifluoromethoxy-benzyl)-quinoline-6-sulfonamide]	22 nM	100%
Cc1c(N(Cc2cccc3cccnc23)S(=O)(=O)c2ccc3ncccc3c2)sc2ccccc12 [Compound 32, N-(3-Methyl-benzo[b]thiophen-2-yl)-N-(quinolin-8-ylmethyl)-quinoline-6-sulfonamide]	37 nM	100%
O=S(=O)(c1cccnc1)N(Cc1ccc(F)c(F)c1)c1cc2ccccc2s1 [Compound 33, N-(Benzo[b]thiophen-2-yl)-N-(3,4-difluoro-benzyl)-pyridine-3-sulfonamide]	57.4 nM	100%
CS(=O)(=O)N(Cc1ccc(F)c(F)c1)c1cc2ccccc2s1 [Compound 34, N-Benzo[b]thiophen-2-yl-N-(3,4-difluoro-benzyl)-methanesulfonamide]	184 nM	98%
CCS(=O)(=O)N(Cc1ccc(F)c(F)c1)c1cc2ccccc2s1 [Compound 35, N-(Benzo[b]thiophen-2-yl)-N-(3,4-difluoro-benzyl)-ethanesulfonamide]	60.8 nM	100%
CCCS(=O)(=O)N(Cc1ccc(F)c(F)c1)c1cc2ccccc2s1 [Compound 36, N-(Benzo[b]thiophen-2-yl)-N-(3,4-difluoro-benzyl)-propane-1-sulfonamide]	77.1 nM	98%
CCCCS(=O)(=O)N(Cc1ccc(F)c(F)c1)c1cc2ccccc2s1 [Compound 37, N-(Benzo[b]thiophen-2-yl)-N-(3,4-difluoro-benzyl)-butane-1-sulfonamide]	98.3 nM	96%
Cc1c(N(Cc2ccc(C(F)(F)F)c(F)c2)S(=O)(=O)c2cccs2)sc2ccccc12 [Compound 38, N-(3-Fluoro-4-trifluoromethyl-benzyl)-N-(3-methyl-benzo[b]thiophen-2-yl)-thiophene-2-sulfonamide]	3 nM	97%
